Measurements reported in US12077503B2, “Substituted cyclic amides and their use as herbicides” (FMC CORPORATION, priority 2015, dated 2024).

Experiments:
Format in all cases: in vivo
[1] = tested on: barnyardgrass (Echinochloa crus-galli); assay: Test G Pre-Emergence Protocol; conditions: Echinochloa crus-galli, pre-emergence, 312 h, evaluated after 13 days; for pest or weed control at 15.625 g/ha: 15.625 g ai/ha, read-out: Barnyard grass damage rating (100=total damage to plant; 0=no damage to plant); for pest or weed control at 62.5 g/ha: 62.5 g ai/ha, 100=total damage to plant, 0=no damage to plant, read-out: plant damage rating, Barnyardgrass; for pest or weed control at 250 g/ha: 250 g ai/ha, read-out: Barnyardgrass damage rating (100=total damage to plant; 0=no damage to plant)
Outline: (§1)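 Seeds were sown in standard soil and kept one day in a glasshouse (24/16° C day/night, 14 h light, 65% humidity), then sprayed with compound in acetone/water (50:50) containing 0.5% Tween 20 at 15.625, 62.5 or 250 g/ha. Damage was scored after 13 days (0 = none, 100 = total).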

corn (Zea mays) [2] = assay: Test G Pre-Emergence Protocol; conditions: Zea mays, pre-emergence, 312 h, evaluated after 13 days; for plant injury at 15.625 g/ha: 15.625 g ai/ha; for plant injury at 15.625 g/ha / plant injury at 250 g/ha: read-out: Corn damage rating (100=total damage to plant; 0=no damage to plant); for plant injury at 62.5 g/ha: 62.5 g ai/ha, 100=total damage to plant, 0=no damage to plant, read-out: plant damage rating, Corn; for plant injury at 250 g/ha: 250 g ai/ha
Outline: as §1

[3] = tested on: giant foxtail (Setaria faberi); assay: Test G Pre-Emergence Protocol; conditions: Setaria faberi, pre-emergence, 312 h, evaluated after 13 days; for pest or weed control at 15.625 g/ha: 15.625 g ai/ha; for pest or weed control at 15.625 g/ha / pest or weed control at 250 g/ha: read-out: Foxtail, Giant damage rating (100=total damage to plant; 0=no damage to plant); for pest or weed control at 62.5 g/ha: 62.5 g ai/ha, 100=total damage to plant, 0=no damage to plant, read-out: plant damage rating, Foxtail, Giant; for pest or weed control at 250 g/ha: 250 g ai/ha
Outline: as §1

[4] = tested on: ivy-leaved morning glory (Ipomoea hederacea); assay: Test G Pre-Emergence Protocol; conditions: Ipomoea, pre-emergence, 312 h, evaluated after 13 days; for pest or weed control at 15.625 g/ha: 15.625 g ai/ha, read-out: Morning-glory, Ivy-leaved damage rating (100=total damage to plant; 0=no damage to plant); for pest or weed control at 62.5 g/ha: 62.5 g ai/ha, 100=total damage to plant, 0=no damage to plant, read-out: plant damage rating, Morningglory, Ivy-leaved; for pest or weed control at 250 g/ha: 250 g ai/ha, read-out: Morningglory, Ivy-leaved damage rating (100=total damage to plant; 0=no damage to plant)
Outline: as §1

[5] = tested on: redroot pigweed (Amaranthus retroflexus); assay: Test G Pre-Emergence Protocol; conditions: Amaranthus retroflexus, pre-emergence, 312 h, evaluated after 13 days; for pest or weed control at 15.625 g/ha: 15.625 g ai/ha; for pest or weed control at 15.625 g/ha / pest or weed control at 250 g/ha: read-out: Pigweed, Redroot damage rating (100=total damage to plant; 0=no damage to plant); for pest or weed control at 62.5 g/ha: 62.5 g ai/ha, 100=total damage to plant, 0=no damage to plant, read-out: plant damage rating, Pigweed, Redroot; for pest or weed control at 250 g/ha: 250 g ai/ha
Outline: as §1

[6] = tested on: velvetleaf (Abutilon theophrasti); assay: Test G Pre-Emergence Protocol; conditions: Abutilon theophrasti, pre-emergence, 312 h, evaluated after 13 days; for pest or weed control at 15.625 g/ha: 15.625 g ai/ha; for pest or weed control at 15.625 g/ha / pest or weed control at 250 g/ha: read-out: Velvetleaf damage rating (100=total damage to plant; 0=no damage to plant); for pest or weed control at 62.5 g/ha: 62.5 g ai/ha, 100=total damage to plant, 0=no damage to plant, read-out: plant damage rating, Velvetleaf; for pest or weed control at 250 g/ha: 250 g ai/ha
Outline: as §1

[7] = tested on: barnyardgrass (Echinochloa crus-galli); assay: Test G Post-Emergence Protocol; conditions: Echinochloa crus-galli, post-emergence, 312 h; for pest or weed control at 15.625 g/ha: 15.625 g ai/ha, evaluated after 13 days (100=total damage to plant; 0=no damage to plant), read-out: Barnyardgrass damage rating; for pest or weed control at 62.5 g/ha: 62.5 g ai/ha, read-out: Barnyardgrass damage rating (100=total damage to plant; 0=no damage to plant); for pest or weed control at 62.5 g/ha / pest or weed control at 250 g/ha: evaluated after 13 days; for pest or weed control at 250 g/ha: 250 g ai/ha, read-out: damage to plant, Barnyardgrass (100=total damage to plant; 0=no damage to plant)
Outline: (§2)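 A glasshouse post-emergence test: 8-day-old plants sprayed at 15.625, 62.5 or 250 g/ha, then grown at 24/16 °C day/night with 14 h light and 65% humidity. Damage rated 13 days later, 0–100.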

corn (Zea mays) [8] = assay: Test G Post-Emergence Protocol; conditions: Zea mays, post-emergence, 312 h; for plant injury at 15.625 g/ha: 15.625 g ai/ha, evaluated after 13 days (100=total damage to plant; 0=no damage to plant), read-out: Corn damage rating; for plant injury at 62.5 g/ha: 62.5 g ai/ha, read-out: Corn damage rating (100=total damage to plant; 0=no damage to plant); for plant injury at 62.5 g/ha / plant injury at 250 g/ha: evaluated after 13 days; for plant injury at 250 g/ha: 250 g ai/ha, read-out: damage to plant, Corn (100=total damage to plant; 0=no damage to plant)
Outline: as §2

[9] = tested on: giant foxtail (Setaria faberi); assay: Test G Post-Emergence Protocol; conditions: Setaria faberi, post-emergence, 312 h; for pest or weed control at 15.625 g/ha: 15.625 g ai/ha, evaluated after 13 days (100=total damage to plant; 0=no damage to plant), read-out: Foxtail, Giant damage rating; for pest or weed control at 62.5 g/ha: 62.5 g ai/ha, read-out: Foxtail, Giant damage rating (100=total damage to plant; 0=no damage to plant); for pest or weed control at 62.5 g/ha / pest or weed control at 250 g/ha: evaluated after 13 days; for pest or weed control at 250 g/ha: 250 g ai/ha, read-out: damage to plant, Foxtail, Giant (100=total damage to plant; 0=no damage to plant)
Outline: as §2

[10] = tested on: ivy-leaved morning glory (Ipomoea hederacea); assay: Test G Post-Emergence Protocol; conditions: Ipomoea, post-emergence, 312 h; for pest or weed control at 15.625 g/ha: 15.625 g ai/ha, evaluated after 13 days (100=total damage to plant; 0=no damage to plant), read-out: Morningglory, Ivy-leaved damage rating; for pest or weed control at 62.5 g/ha: 62.5 g ai/ha, read-out: Morningglory, Ivy-leaved damage rating (100=total damage to plant; 0=no damage to plant); for pest or weed control at 62.5 g/ha / pest or weed control at 250 g/ha: evaluated after 13 days; for pest or weed control at 250 g/ha: 250 g ai/ha, read-out: damage to plant, Morningglory, Ivy-leaved (100=total damage to plant; 0=no damage to plant)
Outline: as §2

[11] = tested on: redroot pigweed (Amaranthus retroflexus); assay: Test G Post-Emergence Protocol; conditions: Amaranthus retroflexus, post-emergence, 312 h; for pest or weed control at 15.625 g/ha: 15.625 g ai/ha, evaluated after 13 days (100=total damage to plant; 0=no damage to plant), read-out: Pigweed, Redroot damage rating; for pest or weed control at 62.5 g/ha: 62.5 g ai/ha, read-out: Pigweed, Redroot damage rating (100=total damage to plant; 0=no damage to plant); for pest or weed control at 62.5 g/ha / pest or weed control at 250 g/ha: evaluated after 13 days; for pest or weed control at 250 g/ha: 250 g ai/ha, read-out: damage to plant, Pigweed, Redroot (100=total damage to plant; 0=no damage to plant)
Outline: as §2

[12] = tested on: velvetleaf (Abutilon theophrasti); assay: Test G Post-Emergence Protocol; conditions: Abutilon theophrasti, post-emergence, 312 h; for pest or weed control at 15.625 g/ha: 15.625 g ai/ha, evaluated after 13 days (100=total damage to plant; 0=no damage to plant), read-out: Velvetleaf damage rating; for pest or weed control at 62.5 g/ha: 62.5 g ai/ha, read-out: Velvetleaf damage rating (100=total damage to plant; 0=no damage to plant); for pest or weed control at 62.5 g/ha / pest or weed control at 250 g/ha: evaluated after 13 days; for pest or weed control at 250 g/ha: 250 g ai/ha, read-out: damage to plant, Velvetleaf (100=total damage to plant; 0=no damage to plant)
Outline: as §2

C=CCc1ccc(Cl)cc1NC(=O)[C@H]1C(=O)N(C)C[C@@H]1c1ccc(C(F)(F)F)cc1 (racemic) [Compound 1441]
20%: plant injury at 250 g/ha (corn (Zea mays) [8]) | pest or weed control at 250 g/ha [9]
0%: pest or weed control at 15.625 g/ha [1] | pest or weed control at 62.5 g/ha [1] | pest or weed control at 250 g/ha [1] | plant injury at 15.625 g/ha (corn (Zea mays) [2]) | plant injury at 62.5 g/ha (corn (Zea mays) [2]) | plant injury at 250 g/ha (corn (Zea mays) [2]) | pest or weed control at 15.625 g/ha [3] | pest or weed control at 62.5 g/ha [3] | pest or weed control at 250 g/ha [3] | pest or weed control at 15.625 g/ha [4] | pest or weed control at 62.5 g/ha [4] | pest or weed control at 250 g/ha [4] | pest or weed control at 15.625 g/ha [5] | pest or weed control at 62.5 g/ha [5] | pest or weed control at 250 g/ha [5] | pest or weed control at 15.625 g/ha [6] | pest or weed control at 62.5 g/ha [6] | pest or weed control at 250 g/ha [6] | pest or weed control at 15.625 g/ha [7] | pest or weed control at 62.5 g/ha [7] | pest or weed control at 250 g/ha [7] | plant injury at 15.625 g/ha (corn (Zea mays) [8]) | plant injury at 62.5 g/ha (corn (Zea mays) [8]) | pest or weed control at 15.625 g/ha [9] | pest or weed control at 62.5 g/ha [9] | pest or weed control at 15.625 g/ha [10] | pest or weed control at 62.5 g/ha [10] | pest or weed control at 250 g/ha [10] | pest or weed control at 15.625 g/ha [11] | pest or weed control at 62.5 g/ha [11] | pest or weed control at 250 g/ha [11] | pest or weed control at 15.625 g/ha [12] | pest or weed control at 62.5 g/ha [12] | pest or weed control at 250 g/ha [12]

CN1C[C@@H](c2ccc(C(F)(F)F)cc2)[C@H](C(=O)Nc2c[nH]nc2C(F)(F)F)C1=O (racemic) [Compound 1535]
30%: pest or weed control at 250 g/ha [11]
0%: pest or weed control at 15.625 g/ha [1] | pest or weed control at 62.5 g/ha [1] | pest or weed control at 250 g/ha [1] | plant injury at 15.625 g/ha (corn (Zea mays) [2]) | plant injury at 62.5 g/ha (corn (Zea mays) [2]) | plant injury at 250 g/ha (corn (Zea mays) [2]) | pest or weed control at 15.625 g/ha [3] | pest or weed control at 62.5 g/ha [3] | pest or weed control at 250 g/ha [3] | pest or weed control at 15.625 g/ha [4] | pest or weed control at 62.5 g/ha [4] | pest or weed control at 250 g/ha [4] | pest or weed control at 15.625 g/ha [5] | pest or weed control at 15.625 g/ha [6] | pest or weed control at 62.5 g/ha [6] | pest or weed control at 250 g/ha [6] | pest or weed control at 15.625 g/ha [7] | pest or weed control at 62.5 g/ha [7] | pest or weed control at 250 g/ha [7] | plant injury at 15.625 g/ha (corn (Zea mays) [8]) | plant injury at 62.5 g/ha (corn (Zea mays) [8]) | pest or weed control at 15.625 g/ha [9] | pest or weed control at 62.5 g/ha [9] | pest or weed control at 250 g/ha [9] | pest or weed control at 15.625 g/ha [10] | pest or weed control at 62.5 g/ha [10] | pest or weed control at 250 g/ha [10] | pest or weed control at 15.625 g/ha [11] | pest or weed control at 15.625 g/ha [12] | pest or weed control at 62.5 g/ha [12] | pest or weed control at 250 g/ha [12]
20%: pest or weed control at 62.5 g/ha [5]
10%: plant injury at 250 g/ha (corn (Zea mays) [8]) | pest or weed control at 62.5 g/ha [11]
40%: pest or weed control at 250 g/ha [5]
